The values below are quoted from earlier work in PMC8287861 (Frontiers in Microbiology, 2021).

In brackets after ≈: the same amount, converted by molar mass. Read-outs that look alike come from different tables or passages of the source.

Data set [1] has as its system Pseudomonas aeruginosa. Also noted: method as in Lomovskaya et al. (2021). The following applies: ref Lomovskaya et al. (2021); for MIC50 / MIC90: challenge panel, QPX7728 at 8 μg/ml.
Data set [2] has as its system Pseudomonas aeruginosa. Also on record: method as in Lomovskaya et al. (2021). The following applies: panel reflecting current MIC distribution (N = 500); QPX7728 at 8 μg/ml; ref Lomovskaya et al. (2021).
For data set [3], the system named is KPC-producing strains of Klebsiella pneumoniae and blaKPC mutants. Also on record: method as in Nelson et al., 2019. The following applies: ref Nelson et al., 2019.
The subject of data set [4] is Enterobacterales producing ESBLs and carbapenemases. Also noted: method as in Rubio-Aparicio et al., 2019. The following applies: ref Rubio-Aparicio et al., 2019.
For data set [5], the system named is isogenic strains of P. aeruginosa that produced KPC. Also noted: method as in Lomovskaya et al., 2020a. The following applies: ref Lomovskaya et al., 2020a.

The MIC50 is an inhibitory concentration at the 50% level, which refers to growth in some studies and to a panel of isolates in others. The term MIC90 denotes an inhibitory concentration at the 90% level, which refers to growth in some studies and to a panel of isolates in others. With `C[C@H]1[C@H](NC(=O)/C(=N\OC(C)(C)C(=O)O)c2csc(N)n2)C(=O)N1S(=O)(=O)O` [Aztreonam, aztreonam], the MIC50 with Pseudomonas aeruginosa [1] (All (N = 290)), in the data set with Pseudomonas aeruginosa [1] (MBL (N = 61)) and in the data set on Pseudomonas aeruginosa [1] (No MBL (N = 229)) was 32 µg/mL (≈ 73.5 µM) throughout. For the same molecule, the MIC90 in the data set on Pseudomonas aeruginosa [1] (All (N = 290)), in the data set with Pseudomonas aeruginosa [1] (MBL (N = 61)) and in the data set with Pseudomonas aeruginosa [1] (No MBL (N = 229)) was over 64 µg/mL each time.

What is called MIC is the lowest concentration that inhibits growth of the organism. In the case of `CO/N=C(\C(=O)N[C@@H]1C(=O)N2C(C(=O)[O-])=C(C[N+]3(C)CCCC3)CS[C@H]12)c1csc(N)n1` [Cefepime, cefepime], the MIC50 was 4 µg/mL (≈ 8.32 µM) in the data set on Pseudomonas aeruginosa [2], 32 µg/mL (≈ 66.6 µM) in the data set with Pseudomonas aeruginosa [1] (All (N = 290)), 64 µg/mL (≈ 133 µM) in the data set on Pseudomonas aeruginosa [1] (MBL (N = 61)) and 32 µg/mL (≈ 66.6 µM) in the data set on Pseudomonas aeruginosa [1] (No MBL (N = 229)). Moreover, the MIC90 in the data set on Pseudomonas aeruginosa [2] was 32 µg/mL (≈ 66.6 µM); in the data set with Pseudomonas aeruginosa [1] (All (N = 290)), 64 µg/mL (≈ 133 µM); in the data set on Pseudomonas aeruginosa [1] (MBL (N = 61)), 64 µg/mL (≈ 133 µM); with Pseudomonas aeruginosa [1] (No MBL (N = 229)), 64 µg/mL (≈ 133 µM). Also, the minimum inhibitory concentration (MIC) is over 128 µg/mL in data set [3] (KP1074, KPC-3, SHV-11, TEM-1/GD); over 128 µg/mL in data set [3] (KP1099, KPC-2, SHV-11, SHV-12, CTX-M-14/GD); over 128 µg/mL in data set [3] (KP1102, KPC-3, TEM-1, SHV-11/GD); 128 µg/mL (≈ 266 µM) in data set [3] (KP1246, KPC-3, SHV-12, SHV-11/FL); over 128 µg/mL in data set [3] (KP1252, KPC-3, TEM-1, SHV-11/FL); over 128 µg/mL in data set [3] (KP1317, KPC-3, TEM-1, SHV-11/GD). Further, the MIC in data set [3] (KP1500, KPC-3, TEM-1, SHV-11, CTX-M-15 OXA-1 OXA-9/IS at −48) is over 128 µg/mL; in data set [3] (KPM3191, KPC-3:: DDK duplication at aa#831 (KPC-29)), 64 µg/mL (≈ 133 µM); in data set [3] (KPM3192, KPC-3:: D179Y (KPC-31)) it was 32 µg/mL (≈ 66.6 µM); in data set [3] (KPM3200, KPC-3::duplication of EAVI (aa#278)), over 128 µg/mL; in data set [3] (KPM3205, KPC-3 ::duplication of KKDY (aa#273)), 128 µg/mL (≈ 266 µM); in data set [3] (KPM3210, KPC-2::D179N), 128 µg/mL (≈ 266 µM). The minimal inhibitory concentration (MIC) was 128 µg/mL (≈ 266 µM) in data set [3] (KPM3212, deletion of ELNSAI at aa#497); over 128 µg/mL in data set [3] (KPM3213, KPC-2::D179Y (KPC-31), selected from KP1099); 128 µg/mL (≈ 266 µM) in data set [3] (KPM3214, KPC-2::D179A); 32 µg/mL (≈ 66.6 µM) in data set [3] (KPM3493, KPC-3::duplication of EL at aa#164 (KPC-25)); 128 µg/mL (≈ 266 µM) in data set [3] (KPM3494, KPC-3::R167S); over 128 µg/mL in data set [3] (KPM3495, KPC-3::A175V). Also, the MIC in data set [3] (KPM3511, KPC-3::P174Q) was 64 µg/mL (≈ 133 µM); in data set [3] (KPM3512, KPC-3:: P174L), 16 µg/mL (≈ 33.3 µM); in data set [3] (KPM3517, KPC-3::D179Y (KPC-31)) it was over 128 µg/mL; in data set [3] (KPM3520, Both WT and mutant KPC-3::duplication of 8aa (aa#264–271)) it was over 128 µg/mL; in data set [3] (KPM3523, Both WT and mutant KPC-3:: deletion of EL (aa#241–242)), 128 µg/mL (≈ 266 µM); in data set [3] (KPM3546, KPC-3::R164H) it was over 128 µg/mL. For the same molecule, the “% of isolates shifted by QPX7728 at or below breakpoint” value with Pseudomonas aeruginosa [1] (challenge panel (N = 290), with QPX7728, 8 or 16 μg/ml for cefepime and piperacillin, respectively) is recorded as 70.3%.

`C[C@@H](O)[C@H]1C(=O)N2C(C(=O)O)=C(SC3CN(C4=NCCS4)C3)[C@H](C)[C@H]12` [Tebipenem]: the MIC50 in data set [4] (All Enterobacterales (N = 972)) was 0.25 µg/mL (≈ 0.652 µM); in data set [4] (CRE KPC (N = 292)) it was 64/>64 μg/ml; in data set [4] (CRE MBL (N = 226)) it was 32 µg/mL (≈ 83.4 µM); in data set [4] (CRE OXA-48 (N = 47)), 32 µg/mL (≈ 83.4 µM); in data set [4] (ESBLs, no CRE (N = 371)), at most 0.06 µg/mL; in data set [4] (Non-CP CRE) it was 8 µg/mL (≈ 20.9 µM). The MIC90 in data set [4] (All Enterobacterales (N = 972)) is over 64 µg/mL; in data set [4] (CRE KPC (N = 292)) it was 64/>64 μg/ml; in data set [4] (CRE MBL (N = 226)), over 64 µg/mL; in data set [4] (CRE OXA-48 (N = 47)) it was 64 µg/mL (≈ 167 µM); in data set [4] (ESBLs, no CRE (N = 371)) it was 0.5 µg/mL (≈ 1.3 µM); in data set [4] (Non-CP CRE), 16 µg/mL (≈ 41.7 µM).

Consider `C[C@@H](O)[C@H]1C(=O)N2C(C(=O)[O-])=C(SC3Cn4cnc[n+]4C3)[C@H](C)[C@H]12` (some centres unmarked) [Biapenem], for which the “Biapenem MIC” value in data set [5] (PAM4126, mexR (MexAB-OprM)) was 64 µg/mL; in data set [5] (PAM4129, nfxB (MexCD-OprJ)), 8 µg/mL; in data set [5] (PAM4132, mexT (MexEF-OprM)), 128 µg/mL; in data set [5] (PAM4150, mexZ (MexXY-OprM)) it was 64 µg/mL; in data set [5] (PAM4224, Wild-type) it was 64 µg/mL; in data set [5] (PAM4365, MexA::Tet), 64 µg/mL. The “MIC of the vector only strain” value in data set [5] (vector only counterpart of PAM4126, mexR (MexAB-OprM)) was 0.125 µg/mL; in data set [5] (vector only counterpart of PAM4129, nfxB (MexCD-OprJ)), 0.03 µg/mL; in data set [5] (vector only counterpart of PAM4132, mexT (MexEF-OprM)), 0.5 µg/mL; in data set [5] (vector only counterpart of PAM4150, mexZ (MexXY-OprM)) it was 0.25 µg/mL; in data set [5] (vector only counterpart of PAM4224, Wild-type), 0.25 µg/mL; in data set [5] (vector only counterpart of PAM4365, MexA::Tet) it was 0.25 µg/mL.

Regarding `Nc1nc(/C(=C/CC(=O)O)C(=O)N[C@@H]2C(=O)N3C(C(=O)O)=CCS[C@H]23)cs1` [Ceftibuten], the MIC50 in data set [4] (All Enterobacterales (N = 972)) was 32 µg/mL (≈ 78 µM); in data set [4] (CRE KPC (N = 292)), 16 µg/mL (≈ 39 µM); in data set [4] (CRE MBL (N = 226)), >64/>64 μg/ml; in data set [4] (CRE OXA-48 (N = 47)), 64/>64 μg/ml; in data set [4] (ESBLs, no CRE (N = 371)), 8 µg/mL (≈ 19.5 µM); in data set [4] (Non-CP CRE), >64/>64 μg/ml. The MIC90 is over 64 µg/mL in data set [4] (All Enterobacterales (N = 972)); over 64 µg/mL in data set [4] (CRE KPC (N = 292)); >64/>64 μg/ml in data set [4] (CRE MBL (N = 226)); 64/>64 μg/ml in data set [4] (CRE OXA-48 (N = 47)); over 64 µg/mL in data set [4] (ESBLs, no CRE (N = 371)); >64/>64 μg/ml in data set [4] (Non-CP CRE).

Consider `COCC1=C(C(=O)O)N2C(=O)[C@@H](NC(=O)/C(=N\OC)c3csc(N)n3)[C@H]2SC1` [Cefpodoxime], for which the MIC50 in data set [4] (All Enterobacterales (N = 972)) is >64/>64 μg/ml; in data set [4] (CRE KPC (N = 292)), >64/>64 μg/ml; in data set [4] (CRE MBL (N = 226)) it was >64/>64 μg/ml; in data set [4] (CRE OXA-48 (N = 47)), >64/>64 μg/ml; in data set [4] (ESBLs, no CRE (N = 371)) it was >64/>64 μg/ml; in data set [4] (Non-CP CRE), >64/>64 μg/ml. Moreover, the MIC90 in data set [4] (All Enterobacterales (N = 972)) is recorded as >64/>64 μg/ml; in data set [4] (CRE KPC (N = 292)), >64/>64 μg/ml; in data set [4] (CRE MBL (N = 226)), >64/>64 μg/ml; in data set [4] (CRE OXA-48 (N = 47)), >64/>64 μg/ml; in data set [4] (ESBLs, no CRE (N = 371)) it was >64/>64 μg/ml; in data set [4] (Non-CP CRE), >64/>64 μg/ml.

Take `Cn1c(N)c(NC(=O)NCCN)c[n+]1CC1=C(C(=O)O)N2C(=O)[C@@H](NC(=O)/C(=N\OC(C)(C)C(=O)[O-])c3nsc(N)n3)[C@H]2SC1` [Ceftolozane, ceftolozane]: the MIC50 with Pseudomonas aeruginosa [2] is 0.5 µg/mL (≈ 0.75 µM); with Pseudomonas aeruginosa [1] (All (N = 290)) it was 4 µg/mL (≈ 6 µM); with Pseudomonas aeruginosa [1] (MBL (N = 61)), over 64 µg/mL; with Pseudomonas aeruginosa [1] (No MBL (N = 229)), 2 µg/mL (≈ 3 µM). Besides, the MIC90 with Pseudomonas aeruginosa [2] was 4 µg/mL (≈ 6 µM); with Pseudomonas aeruginosa [1] (All (N = 290)) it was over 64 µg/mL; in the data set with Pseudomonas aeruginosa [1] (MBL (N = 61)), over 64 µg/mL; in the data set on Pseudomonas aeruginosa [1] (No MBL (N = 229)), over 64 µg/mL.
